Experimental data from patent US20220041559A1, “BENZO-AND PYRIDO-PYRAZOLES AS PROTEIN KINASE INHIBITORS” (ROTTAPHARM BIOTECH S.R.L., priority 2019, published 2022).

Biological target: T1, VEGFR (Homo sapiens, UniProt P35968)
T1 construct: endogenous in cells; host or cells: HUVEC-C
Experiment: Inhibition of VEGF-induced VEGFR (Y1175)-phosphorylation (cell-based assay, HUVEC-C)
Details: VEGF 50 ng/ml, Western blot
Procedure: HUVEC-C cells (Human Umbilical Vein Endothelial Cells from ATCC) were plated at 6×10^4 cells/well in 24 w microplates and grown adherent in medium F12K+0.1 mg/ml Heparin+0.05 mg/ml ECGS+10% FBS at 37° C. with 5% CO2. After 24 h, medium was removed and starvation was induced overnight in medium F12K+0.1 mg/ml Heparin+0.5% FBS (medium starvation). At the end of incubation, treatment of cells was performed by medium replacement and by adding fresh medium containing or not diluent or test compounds (DMSO 0.1% final concentration) diluted in medium starvation. After 1 hour, VEGF stimuli (diluted in medium starvation, 50 ng/ml final concentration) was added to each sample, with the exception of basal sample; plate was then incubated for 5 min at 37° C. with 5% CO2. At the end of the incubation, the medium was removed and cellular lysates were obtained by adding M-PER lysis buffer containing 1× Protease/Phosphatase inhibitors cocktail. Then, lysates were transferred into Eppendorf tubes, sonicated and stored at −80° C.
Lysates were analyzed by Western blot for VEGFR phosphorylation (Tyrosine 1175) and total receptor amount determination. Densitometric analysis of sample lanes were performed by ImageQuant TL software (GE Healthcare Life Sciences). […]

T1 sequence (P35968 20-1356): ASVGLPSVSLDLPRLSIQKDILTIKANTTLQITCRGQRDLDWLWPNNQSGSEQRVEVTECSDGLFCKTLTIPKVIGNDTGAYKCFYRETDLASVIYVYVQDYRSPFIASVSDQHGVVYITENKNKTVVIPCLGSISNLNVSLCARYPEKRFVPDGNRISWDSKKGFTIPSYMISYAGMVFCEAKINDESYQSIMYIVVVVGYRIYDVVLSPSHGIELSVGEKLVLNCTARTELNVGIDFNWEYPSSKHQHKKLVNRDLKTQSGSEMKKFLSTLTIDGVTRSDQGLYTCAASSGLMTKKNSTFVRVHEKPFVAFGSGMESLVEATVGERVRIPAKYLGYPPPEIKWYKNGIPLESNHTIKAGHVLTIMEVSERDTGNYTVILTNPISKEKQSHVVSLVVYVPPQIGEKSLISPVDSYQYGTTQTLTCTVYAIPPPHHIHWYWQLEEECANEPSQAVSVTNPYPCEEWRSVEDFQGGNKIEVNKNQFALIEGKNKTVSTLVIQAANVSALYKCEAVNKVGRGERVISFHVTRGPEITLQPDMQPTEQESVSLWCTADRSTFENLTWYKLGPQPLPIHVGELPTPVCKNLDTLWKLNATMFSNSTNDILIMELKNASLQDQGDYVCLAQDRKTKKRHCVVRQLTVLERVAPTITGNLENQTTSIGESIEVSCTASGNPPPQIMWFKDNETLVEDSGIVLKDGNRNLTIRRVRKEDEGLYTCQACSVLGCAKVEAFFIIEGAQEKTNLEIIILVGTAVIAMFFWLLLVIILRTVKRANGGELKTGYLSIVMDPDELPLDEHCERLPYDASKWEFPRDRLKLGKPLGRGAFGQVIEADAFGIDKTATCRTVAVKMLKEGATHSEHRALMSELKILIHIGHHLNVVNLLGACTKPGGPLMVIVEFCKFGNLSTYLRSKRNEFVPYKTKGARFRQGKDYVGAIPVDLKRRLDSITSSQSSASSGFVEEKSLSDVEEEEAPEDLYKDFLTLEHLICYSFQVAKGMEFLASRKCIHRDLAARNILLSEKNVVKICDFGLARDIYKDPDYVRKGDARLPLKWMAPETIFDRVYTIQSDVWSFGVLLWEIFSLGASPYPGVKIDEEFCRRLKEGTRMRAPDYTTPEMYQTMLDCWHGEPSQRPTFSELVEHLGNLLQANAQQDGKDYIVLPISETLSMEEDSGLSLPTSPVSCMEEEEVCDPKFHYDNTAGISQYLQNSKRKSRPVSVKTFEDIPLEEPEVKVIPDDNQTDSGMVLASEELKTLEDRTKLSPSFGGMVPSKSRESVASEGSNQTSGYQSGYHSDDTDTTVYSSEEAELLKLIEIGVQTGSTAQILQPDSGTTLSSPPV

CN1CCC(c2ccc(C(=O)Nc3n[nH]c4nc(Nc5ccccc5F)ccc34)cc2)CC1 [Compound 5, N-(6-((2-fluorophenyl)amino)-1H-pyrazolo[3,4-b]pyridin-3-yl)-4-(1-methylpiperidin-4-yl)benzamide]
Concentration from which maximal inhibitory activity on VEGFR-phosphorylation is shown: ≥ 1 µM
